Target: human PDE4D catalytic domain (UniProt no. Q08499) (Homo sapiens (Human), UniProt Q08499)
Experiment: PDE4 assay (TR-FRET, FAM-cAMP cleavage)
Type: biochemical
Settings: human PDE4D catalytic domain; molar concentration giving 50% inhibition of substrate cleavage; read-out: PDE4 IC50 range
Outline: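 PDE4D catalytic domain ([…]) was incubated with unlabelled cAMP plus FAM-cAMP and titrated compound, stopped with binding buffer of metal-ion nanoparticles and Tb donor. AMP generation read by TR-FRET; IC50 as 50% inhibition of cleavage versus controls, reported as nM ranges.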

Sequence of human PDE4D catalytic domain (Q08499 380-740 limits assumed): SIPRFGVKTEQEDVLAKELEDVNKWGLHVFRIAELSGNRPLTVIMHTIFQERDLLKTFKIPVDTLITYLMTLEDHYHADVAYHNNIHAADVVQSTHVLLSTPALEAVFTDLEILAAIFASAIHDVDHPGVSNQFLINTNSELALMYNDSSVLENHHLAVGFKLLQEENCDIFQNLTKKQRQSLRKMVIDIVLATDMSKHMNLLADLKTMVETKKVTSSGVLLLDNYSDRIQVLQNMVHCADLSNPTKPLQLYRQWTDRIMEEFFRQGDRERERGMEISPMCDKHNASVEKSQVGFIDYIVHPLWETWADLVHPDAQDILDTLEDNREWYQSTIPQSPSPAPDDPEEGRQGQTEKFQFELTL

| Compound | IC50 [nM] |
| --- | --- |
| CCc1nn(CCCOC(=O)c2cccc(Cl)c2OC)c2c1C(=O)NCC1(CCOCC1)C2 [Example 94, 3-(3-ethyl-4-oxo-spiro[6,8-dihydro-5H-pyrazolo[4,3-c]azepine-7,4′-tetrahydropyran]-1-yl)propyl 3-chloro-2-methoxy-benzoate] | < 100 |
| CCc1nn(CCCOC(=O)c2cc(F)ccc2OC)c2c1C(=O)NCC1(CCOCC1)C2 [Example 68, 3-(3-ethyl-4-oxo-spiro[6,8-dihydro-5H-pyrazolo[4,3-c]azepine-7,4′-tetrahydropyran]-1-yl)propyl 5-fluoro-2-methoxy-benzoate] | < 100 |
| CCc1nn(C[C@@H](C)COC(=O)c2cc(C(F)(F)F)ccc2F)c2c1C(=O)NCC1(CCOCC1)C2 [Example 220, [(2R)-3-(3-ethyl-4-oxo-spiro[6,8-dihydro-5H-pyrazolo[4,3-c]azepine-7,4′-tetrahydropyran]-1-yl)-2-methyl-propyl] 2-fluoro-5-(trifluoromethyl)benzoate] | < 100 |
| CCc1nn(CCCOC(=O)c2ccc(OC)cc2)c2c1C(=O)NCC1(CCOCC1)C2 [Example 28, 3-(3-ethyl-4-oxo-spiro[6,8-dihydro-5H-pyrazolo[4,3-c]azepine-7,4′-tetrahydropyran]-1-yl)propyl 4-methoxybenzoate] | < 100 |
| CCc1nn(C[C@@H](C)COC(=O)c2cc(Cl)ccc2F)c2c1C(=O)NCC1(CCOCC1)C2 [Example 202, [(2R)-3-(3-ethyl-4-oxo-spiro[6,8-dihydro-5H-pyrazolo[4,3-c]azepine-7,4′-tetrahydropyran]-1-yl)-2-methyl-propyl] 5-chloro-2-fluoro-benzoate] | < 100 |
| CCc1nn(CCCOC(=O)c2ccc(C)c(C)c2)c2c1C(=O)NCC1(CCOCC1)C2 [Example 26, 3-(3-ethyl-4-oxo-spiro[6,8-dihydro-5H-pyrazolo[4,3-c]azepine-7,4′-tetrahydropyran]-1-yl)propyl 3,4-dimethylbenzoate] | < 100 |
| CCc1nn(CCCOC(=O)c2cccc(C(F)(F)F)c2C)c2c1C(=O)NCC1(CCOCC1)C2 [Example 104, 3-(3-ethyl-4-oxo-spiro[6,8-dihydro-5H-pyrazolo[4,3-c]azepine-7,4′-tetrahydropyran]-1-yl)propyl 2-methyl-3-(trifluoromethyl)benzoate] | < 100 |
| CCc1nn(CCCOC(=O)c2ccc(S(N)(=O)=O)cc2)c2c1C(=O)NCC1(CCOCC1)C2 [Example 101, 3-(3-ethyl-4-oxo-spiro[6,8-dihydro-5H-pyrazolo[4,3-c]azepine-7,4′-tetrahydropyran]-1-yl)propyl 4-sulfamoylbenzoate] | < 100 |
| CCc1nn(C[C@@H](C)COC(=O)c2ccc(C)cc2F)c2c1C(=O)NCC1(CCOCC1)C2 [Example 172, [(2R)-3-(3-ethyl-4-oxo-spiro[6,8-dihydro-5H-pyrazolo[4,3-c]azepine-7,4′-tetrahydropyran]-1-yl)-2-methyl-propyl] 2-fluoro-4-methyl-benzoate] | < 100 |
| CCc1nn(CCCOC(=O)c2cccc(C(=O)NC)c2)c2c1C(=O)NCC1(CCOCC1)C2 [Example 151, 3-(3-ethyl-4-oxo-spiro[6,8-dihydro-5H-pyrazolo[4,3-c]azepine-7,4′-tetra-hydropyran]-1-yl)propyl 3-(methylcarbamoyl)benzoate] | < 100 |

Same assay, conditions: read-out: PDE4 IC50 range

| Compound | IC50 [nM] |
| --- | --- |
| CCc1nn(CC2(COC(=O)c3ccc(Cl)cc3)COC2)c2c1C(=O)NCC1(CCOCC1)C2 [Example 361, [3-[(3-ethyl-4-oxo-spiro[6,8-dihydro-5H-pyrazolo[4,3-c]azepine-7,4′-tetrahydropyran]-1-yl)methyl]oxetan-3-yl]methyl 4-chlorobenzoate] | < 100 |
| CCc1nn(CC(C)(C)COC(=O)C(CC)CC)c2c1C(=O)NCC1(CCOCC1)C2 [Example 282, [3-(3-ethyl-4-oxo-spiro[6,8-dihydro-5H-pyrazolo[4,3-c]azepine-7,4′-tetrahydropyran]-1-yl)-2,2-dimethyl-propyl] 2-ethylbutanoate] | < 100 |
| CCc1nn(CC(C)(C)COC(=O)c2ccc(C(=O)N3CCNCC3)cc2)c2c1C(=O)NCC1(CCOCC1)C2 [Example 335, [3-(3-ethyl-4-oxo-spiro[6,8-dihydro-5H-pyrazolo[4,3-c]azepine-7,4′-tetrahydropyran]-1-yl)-2,2-dimethyl-propyl] 4-(piperazine-1-carbonyl)benzoate] | < 100 |
| CCc1nn(CCCCOC(=O)c2cccc(S(=O)(=O)NC)c2)c2c1C(=O)NCC1(CCOCC1)C2 [Example 372, 4-(3-ethyl-4-oxo-spiro[6,8-dihydro-5H-pyrazolo[4,3-c]azepine-7,4′-tetrahydropyran]-1-yl)butyl 3-(methylsulfamoyl)benzoate] | < 100 |
| CCc1nn(CC(C)(C)COC(=O)c2cccc(S(C)(=O)=O)c2)c2c1C(=O)NCC1(CCOCC1)C2 [Example 305, [3-(3-ethyl-4-oxo-spiro[6,8-dihydro-5H-pyrazolo[4,3-c]azepine-7,4′-tetrahydropyran]-1-yl)-2,2-dimethyl-propyl] 3-methylsulfonylbenzoate] | < 100 |
| CCc1nn(CC(C)(C)COC(=O)c2ccccc2S(C)(=O)=O)c2c1C(=O)NCC1(CCOCC1)C2 [Example 307, [3-(3-ethyl-4-oxo-spiro[6,8-dihydro-5H-pyrazolo[4,3-c]azepine-7,4′-tetrahydropyran]-1-yl)-2,2-dimethyl-propyl] 2-methylsulfonylbenzoate] | < 100 |
| CCc1nn(CC2(COC(=O)c3cccc(F)c3)CC2)c2c1C(=O)NCC1(CCOCC1)C2 [Example 352, [1-[(3-ethyl-4-oxo-spiro[6,8-dihydro-5H-pyrazolo[4,3-c]azepine-7,4′-tetrahydropyran]-1-yl)methyl]cyclopropyl]methyl 3-fluorobenzoate] | < 100 |
| CCc1nn(C[C@@H](C)COC(=O)c2cccc(C(=O)N3CCNCC3)c2)c2c1C(=O)NCC1(CCOCC1)C2 [Example 270, [(2R)-3-(3-ethyl-4-oxo-spiro[6,8-dihydro-5H-pyrazolo[4,3-c]azepine-7,4′-tetrahydropyran]-1-yl)-2-methyl-propyl] 3-(piperazine-1-carbonyl)benzoate] | < 100 |
| CCc1nn(CC(C)(C)COC(=O)c2cccc(S(=O)(=O)N3CCOCC3)c2)c2c1C(=O)NCC1(CCOCC1)C2 [Example 323, [3-(3-ethyl-4-oxo-spiro[6,8-dihydro-5H-pyrazolo[4,3-c]azepine-7,4′-tetrahydropyran]-1-yl)-2,2-dimethyl-propyl] 3-morpholinosulfonylbenzoate] | < 100 |
| CCc1nn(CCCCOC(=O)c2ccc(C(C)=O)cc2)c2c1C(=O)NCC1(CCOCC1)C2 [Example 368, 4-(3-ethyl-4-oxo-spiro[6,8-dihydro-5H-pyrazolo[4,3-c]azepine-7,4′-tetrahydropyran]-1-yl)butyl 4-acetylbenzoate] | 100 to 500 |
| CCc1nn(CC(C)(C)COC(=O)c2cccc(S(=O)(=O)N3CCCC3)c2)c2c1C(=O)NCC1(CCOCC1)C2 [Example 320, [3-(3-ethyl-4-oxo-spiro[6,8-dihydro-5H-pyrazolo[4,3-c]azepine-7,4′-tetrahydropyran]-1-yl)-2,2-dimethyl-propyl] 3-pyrrolidin-1-ylsulfonylbenzoate] | < 100 |
| CCc1nn(CC(C)(C)COC(=O)c2ccc(F)cc2)c2c1C(=O)NCC1(CCOCC1)C2 [Example 285, [3-(3-ethyl-4-oxo-spiro[6,8-dihydro-5H-pyrazolo[4,3-c]azepine-7,4′-tetrahydropyran]-1-yl)-2,2-dimethyl-propyl] 4-fluorobenzoate] | < 100 |

Reference: patent US10906915B2, “Substituted pyrazoloazepin-4-ones and their use as phosphodiesterase inhibitors” (LEO Pharma A/S, priority 2016, dated 2021)
